{"source": "patent US20260297060A1", "about": "“COMPOUNDS FOR THE DEGRADATION OF MUTANT BRAF” (C4 THERAPEUTICS, INC., priority 2023, published 2026)", "assay": "Pharmacokinetics in female BALB/c nude mice bearing A375 xenografts, 1 day dosing (PK and PD study): plasma, tumor and brain concentrations, AUC", "type": "in vivo", "settings": "mouse, po", "description": "The concentrations of Dabrafenib, Compound 26 and Compound 141 in the treatment of female BALB/c nude mice bearing A375 xenografts are shown in Table 62-Table 72 and FIG. 52-FIG. 73.", "key": {"[1]": {"settings": "plasma, 3 mg/kg, 3 mg/kg p.o. BID × 1 day, post 1st dose, read-out: Mean Concentration in Plasma ± SEM"}, "[2]": {"settings": "plasma, 3 mg/kg, 3 mg/kg p.o. BID × 1 day, post 2nd dose, read-out: Mean Concentration in Plasma ± SEM"}, "[3]": {"settings": "plasma, 6 mg/kg, 6 mg/kg p.o. QD × 1 day, read-out: Mean Concentration in Plasma ± SEM"}, "[4]": {"settings": "plasma, 10 mg/kg, 10 mg/kg p.o. BID × 1 day, post 1st dose, read-out: Mean Concentration in Plasma ± SEM"}, "[5]": {"settings": "plasma, 10 mg/kg, 10 mg/kg p.o. BID × 1 day, post 2nd dose, read-out: Mean Concentration in Plasma ± SEM"}, "[6]": {"settings": "tumor, 1.5 mg/kg, 1.5 mg/kg p.o. BID × 1 day, post 2nd dose, read-out: Mean Concentration in Tumor ± SEM"}, "[7]": {"settings": "tumor, 2 mg/kg, 2 mg/kg p.o. TID × 1 day, post 3rd dose, read-out: Mean Concentration in Tumor ± SEM"}, "[8]": {"settings": "tumor, 3 mg/kg, 3 mg/kg p.o. BID × 1 day, post 2nd dose, read-out: Mean Concentration in Tumor ± SEM"}, "[9]": {"settings": "tumor, 6 mg/kg, 6 mg/kg p.o. QD × 1 day, read-out: Mean Concentration in Tumor ± SEM"}, "[10]": {"settings": "tumor, 10 mg/kg, 10 mg/kg p.o. BID × 1 day, post 2nd dose, read-out: Mean Concentration in Tumor ± SEM"}}, "note": "Like-named read-outs stand apart in the source and are kept apart here."}
{"smiles": "CCN(C)S(=O)(=O)Nc1ccc(F)c(Oc2ccc3ncn([C@H]4COC5(CCN(C6CC7(C6)CN(c6cc8c(cc6F)c(N6CCC(=O)NC6=O)nn8C)C7)CC5)C4)c(=O)c3c2)c1C#N", "note": "[Compound 26, (3R)-3-[6-[2-cyano-3-[[ethyl(methyl)sulfamoyl]amino]-6-fluoro-phenoxy]-4-oxo-quinazolin-3-yl]-8-[2-[3-(2,4-dioxohexahydropyrimidin-1-yl)-5-fluoro-1-methyl-indazol-6-yl]-2-azaspiro[3.3]heptan-6-yl]-1-oxa-8-azaspiro[4.5]decane]", "values": [{"measurement": "concentration at 4 h", "setting": "[1]", "value": "3060 ± 172", "unit": "ng/mL"}, {"measurement": "concentration at 8 h", "setting": "[1]", "value": "645 ± 24.7", "unit": "ng/mL"}, {"measurement": "concentration at 12 h", "setting": "[1]", "value": "527 ± 130", "unit": "ng/mL"}, {"measurement": "concentration at 0.25 h", "setting": "[2]", "value": "1380 ± 113", "unit": "ng/mL"}, {"measurement": "concentration at 0.5 h", "setting": "[2]", "value": "2880 ± 325", "unit": "ng/mL"}, {"measurement": "concentration at 1 h", "setting": "[2]", "value": "4920 ± 1060", "unit": "ng/mL"}, {"measurement": "concentration at 2 h", "setting": "[2]", "value": "5290 ± 1110", "unit": "ng/mL"}, {"measurement": "concentration at 4 h", "setting": "[2]", "value": "2590 ± 422", "unit": "ng/mL"}, {"measurement": "concentration at 10 h", "setting": "[2]", "value": "1500 ± 194", "unit": "ng/mL"}, {"measurement": "concentration at 24 h", "setting": "[2]", "value": "20.5 ± 4.61", "unit": "ng/mL"}, {"measurement": "concentration at 36 h", "setting": "[2]", "value": 1.58, "unit": "ng/mL"}, {"measurement": "concentration at 48 h", "setting": "[2]", "value": "0.968 ± 0.0751", "unit": "ng/mL"}, {"measurement": "concentration at 0.25 h", "setting": "[3]", "value": "3250 ± 159", "unit": "ng/mL"}, {"measurement": "concentration at 0.5 h", "setting": "[3]", "value": "7680 ± 353", "unit": "ng/mL"}, {"measurement": "concentration at 1 h", "setting": "[3]", "value": "15200 ± 186", "unit": "ng/mL"}, {"measurement": "concentration at 2 h", "setting": "[3]", "value": "11600 ± 1450", "unit": "ng/mL"}, {"measurement": "concentration at 4 h", "setting": "[3]", "value": "6670 ± 1110", "unit": "ng/mL"}, {"measurement": "concentration at 8 h", "setting": "[3]", "value": "5720 ± 1940", "unit": "ng/mL"}, {"measurement": "concentration at 10 h", "setting": "[3]", "value": "3110 ± 682", "unit": "ng/mL"}, {"measurement": "concentration at 24 h", "setting": "[3]", "value": "185 ± 109", "unit": "ng/mL"}, {"measurement": "concentration at 36 h", "setting": "[3]", "value": "3.87 ± 0.735", "unit": "ng/mL"}, {"measurement": "concentration at 48 h", "setting": "[3]", "value": 1.07, "unit": "ng/mL"}, {"measurement": "concentration at 0.25 h", "setting": "[4]", "value": "7140 ± 1960", "unit": "ng/mL"}, {"measurement": "concentration at 0.5 h", "setting": "[4]", "value": "17400 ± 1470", "unit": "ng/mL"}, {"measurement": "concentration at 1 h", "setting": "[4]", "value": "25400 ± 10500", "unit": "ng/mL"}, {"measurement": "concentration at 2 h", "setting": "[4]", "value": "18800 ± 3020", "unit": "ng/mL"}, {"measurement": "concentration at 4 h", "setting": "[4]", "value": "7890 ± 2010", "unit": "ng/mL"}, {"measurement": "concentration at 8 h", "setting": "[4]", "value": "2920 ± 468", "unit": "ng/mL"}, {"measurement": "concentration at 12 h", "setting": "[4]", "value": "964 ± 248", "unit": "ng/mL"}, {"measurement": "concentration at 0.25 h", "setting": "[5]", "value": "6220 ± 623", "unit": "ng/mL"}, {"measurement": "concentration at 0.5 h", "setting": "[5]", "value": "12800 ± 1590", "unit": "ng/mL"}, {"measurement": "concentration at 1 h", "setting": "[5]", "value": "27000 ± 3530", "unit": "ng/mL"}, {"measurement": "concentration at 2 h", "setting": "[5]", "value": "20200 ± 1540", "unit": "ng/mL"}, {"measurement": "concentration at 4 h", "setting": "[5]", "value": "17100 ± 3470", "unit": "ng/mL"}, {"measurement": "concentration at 10 h", "setting": "[5]", "value": "4640 ± 318", "unit": "ng/mL"}, {"measurement": "concentration at 24 h", "setting": "[5]", "value": "143 ± 29.1", "unit": "ng/mL"}, {"measurement": "concentration at 36 h", "setting": "[5]", "value": "10.7 ± 2.46", "unit": "ng/mL"}, {"measurement": "concentration at 48 h", "setting": "[5]", "value": "10.6 ± 9.23", "unit": "ng/mL"}, {"measurement": "AUC at 24 h", "setting": "plasma, 1.5 mg/kg p.o. BID × 1 day, read-out: Plasma AUC at 24 hours, Average", "value": 27600, "unit": "ng·h/mL"}, {"measurement": "AUC at 24 h", "setting": "plasma, 2 mg/kg p.o. TID × 1 day, read-out: Plasma AUC at 24 hours, Average", "value": 41800, "unit": "ng·h/mL"}, {"measurement": "AUC at 24 h", "setting": "plasma, 3 mg/kg p.o. BID × 1 day, read-out: Plasma AUC at 24 hours, Average", "value": 60200, "unit": "ng·h/mL"}, {"measurement": "AUC at 24 h", "setting": "plasma, 6 mg/kg p.o. QD × 1 day, read-out: Plasma AUC at 24 hours, Average", "value": 85100, "unit": "ng·h/mL"}, {"measurement": "AUC at 24 h", "setting": "plasma, 10 mg/kg p.o. BID × 1 day, read-out: Plasma AUC at 24 hours, Average", "value": 224000, "unit": "ng·h/mL"}, {"measurement": "concentration at 1 h", "setting": "[6]", "value": "164 ± 31.1", "unit": "ng/g"}, {"measurement": "concentration at 4 h", "setting": "[6]", "value": "552 ± 24.7", "unit": "ng/g"}, {"measurement": "concentration at 10 h", "setting": "[6]", "value": "246 ± 46.4", "unit": "ng/g"}, {"measurement": "concentration at 24 h", "setting": "[6]", "value": "28.3 ± 21.8", "unit": "ng/g"}, {"measurement": "concentration at 48 h", "setting": "[6]", "value": 5.63, "unit": "ng/g"}, {"measurement": "concentration at 1 h", "setting": "[7]", "value": "617 ± 49.7", "unit": "ng/g"}, {"measurement": "concentration at 4 h", "setting": "[7]", "value": "905 ± 48.2", "unit": "ng/g"}, {"measurement": "concentration at 10 h", "setting": "[7]", "value": "667 ± 154", "unit": "ng/g"}, {"measurement": "concentration at 24 h", "setting": "[7]", "value": "12 ± 2.59", "unit": "ng/g"}, {"measurement": "concentration at 0.25 h", "setting": "[8]", "value": "197 ± 15.3", "unit": "ng/g"}, {"measurement": "concentration at 0.5 h", "setting": "[8]", "value": "289 ± 31.1", "unit": "ng/g"}, {"measurement": "concentration at 1 h", "setting": "[8]", "value": "581 ± 107", "unit": "ng/g"}, {"measurement": "concentration at 2 h", "setting": "[8]", "value": "1230 ± 452", "unit": "ng/g"}, {"measurement": "concentration at 4 h", "setting": "[8]", "value": "1060 ± 233", "unit": "ng/g"}, {"measurement": "concentration at 10 h", "setting": "[8]", "value": "630 ± 39.9", "unit": "ng/g"}, {"measurement": "concentration at 24 h", "setting": "[8]", "value": "24.7 ± 7.5", "unit": "ng/g"}, {"measurement": "concentration at 48 h", "setting": "[8]", "value": 7.94, "unit": "ng/g"}, {"measurement": "concentration at 1 h", "setting": "[9]", "value": "882 ± 157", "unit": "ng/g"}, {"measurement": "concentration at 4 h", "setting": "[9]", "value": "2070 ± 259", "unit": "ng/g"}, {"measurement": "concentration at 10 h", "setting": "[9]", "value": "1320 ± 333", "unit": "ng/g"}, {"measurement": "concentration at 24 h", "setting": "[9]", "value": "89.1 ± 25.7", "unit": "ng/g"}, {"measurement": "concentration at 48 h", "setting": "[9]", "value": 24.2, "unit": "ng/g"}, {"measurement": "concentration at 1 h", "setting": "[10]", "value": "3500 ± 219", "unit": "ng/g"}, {"measurement": "concentration at 4 h", "setting": "[10]", "value": "4160 ± 413", "unit": "ng/g"}, {"measurement": "concentration at 10 h", "setting": "[10]", "value": "2060 ± 207", "unit": "ng/g"}, {"measurement": "concentration at 24 h", "setting": "[10]", "value": "624 ± 438", "unit": "ng/g"}, {"measurement": "concentration at 48 h", "setting": "[10]", "value": 81.6, "unit": "ng/g"}, {"measurement": "AUC at 24 h", "setting": "tumor, 1.5 mg/kg p.o. BID × 1 day, read-out: Tumor AUC at 24 hours, Average", "value": 5750, "unit": "ng·h/mL"}, {"measurement": "AUC at 24 h", "setting": "tumor, 2 mg/kg p.o. TID × 1 day, read-out: Tumor AUC at 24 hours, Average", "value": 11900, "unit": "ng·h/mL"}, {"measurement": "AUC at 24 h", "setting": "tumor, 3 mg/kg p.o. BID × 1 day, read-out: Tumor AUC at 24 hours, Average", "value": 13300, "unit": "ng·h/mL"}, {"measurement": "AUC at 24 h", "setting": "tumor, 6 mg/kg p.o. QD × 1 day, read-out: Tumor AUC at 24 hours, Average", "value": 25800, "unit": "ng·h/mL"}, {"measurement": "AUC at 24 h", "setting": "tumor, 10 mg/kg p.o. BID × 1 day, read-out: Tumor AUC at 24 hours, Average", "value": 56700, "unit": "ng·h/mL"}]}
